Results on 12 compounds are retold here after patent US9624214B2, “Amino-substituted imidazo[1,2-a]pyridinecarboxamides and their use” (BAYER PHARMA AKTIENGESELLSCHAFT, priority 2012, dated 2017).

Structures can show the parent of a compound that is named as a salt.

For this test, the target named is T1, recombinant guanylate cyclase reporter cell line (Rattus norvegicus, UniProt P19686+P20595).
T1 construct: expressed in transfected cells
T1 sequence (P20595 1-619): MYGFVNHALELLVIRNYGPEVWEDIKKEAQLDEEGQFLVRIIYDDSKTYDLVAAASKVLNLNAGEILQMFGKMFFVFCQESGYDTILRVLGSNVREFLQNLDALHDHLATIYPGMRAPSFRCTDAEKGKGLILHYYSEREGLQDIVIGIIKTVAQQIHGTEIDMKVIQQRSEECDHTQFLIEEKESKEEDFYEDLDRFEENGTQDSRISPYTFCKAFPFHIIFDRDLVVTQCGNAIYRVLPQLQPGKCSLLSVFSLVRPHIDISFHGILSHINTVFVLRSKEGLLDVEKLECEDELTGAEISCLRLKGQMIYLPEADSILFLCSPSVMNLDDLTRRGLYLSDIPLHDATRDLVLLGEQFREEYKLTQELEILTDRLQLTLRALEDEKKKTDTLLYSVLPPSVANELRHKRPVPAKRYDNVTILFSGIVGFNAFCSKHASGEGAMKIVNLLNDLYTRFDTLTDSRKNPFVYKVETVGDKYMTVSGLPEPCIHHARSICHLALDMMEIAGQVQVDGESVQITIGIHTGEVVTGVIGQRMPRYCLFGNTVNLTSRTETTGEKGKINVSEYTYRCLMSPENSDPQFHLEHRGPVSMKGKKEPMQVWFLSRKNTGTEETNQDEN
T1 sequence (P19686 1-690): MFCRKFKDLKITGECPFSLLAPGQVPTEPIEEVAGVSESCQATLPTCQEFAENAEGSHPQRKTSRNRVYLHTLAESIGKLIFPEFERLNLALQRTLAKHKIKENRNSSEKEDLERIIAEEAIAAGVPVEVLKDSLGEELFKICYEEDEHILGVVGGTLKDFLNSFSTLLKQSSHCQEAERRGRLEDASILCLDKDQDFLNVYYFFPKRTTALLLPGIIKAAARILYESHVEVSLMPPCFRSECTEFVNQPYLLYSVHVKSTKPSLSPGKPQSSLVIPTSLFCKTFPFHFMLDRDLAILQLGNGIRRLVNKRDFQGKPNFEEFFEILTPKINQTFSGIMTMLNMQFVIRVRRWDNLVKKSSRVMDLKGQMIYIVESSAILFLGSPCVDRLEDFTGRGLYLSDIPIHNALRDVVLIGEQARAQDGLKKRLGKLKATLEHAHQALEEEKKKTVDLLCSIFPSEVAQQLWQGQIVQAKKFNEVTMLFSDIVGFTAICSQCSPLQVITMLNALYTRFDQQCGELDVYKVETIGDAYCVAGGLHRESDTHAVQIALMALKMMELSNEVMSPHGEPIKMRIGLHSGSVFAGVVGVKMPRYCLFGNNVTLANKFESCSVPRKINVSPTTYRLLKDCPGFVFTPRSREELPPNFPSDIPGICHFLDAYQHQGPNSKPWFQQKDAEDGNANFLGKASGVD
The test can be described thus: B-2. Action on recombinant guanylate cyclase reporter cell line. Format: cell-based. Particulars: MEC = minimal effective concentration; in some cases mean values from individual determinations. The gist of the method:
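Whole-cell reporter assay with recombinant guanylate cyclase; endpoint = minimal effective concentration.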

Take `C#Cc1cc(OCc2c(F)cccc2F)c2nc(C)c(C(=O)NCC(C)(N)CCC)n2c1` (stereo not drawn) [Example 355, ent-N-(2-amino-2-methylpentyl)-8-[(2,6-difluorobenzyl)oxy]-6-ethynyl-2-methylimidazo[1,2-a]pyridine-3-carboxamide Formate]: the MEC was 0.30 µM.
In the case of `C#Cc1cc(OCc2c(F)cccc2F)c2nc(C)c(C(=O)NCC(C)(N)CCC)n2c1` (stereo not drawn) [Example 356, ent-N-(2-amino-2-methylpentyl)-8-[(2,6-difluorobenzyl)oxy]-6-ethynyl-2-methylimidazo[1,2-a]pyridine-3-carboxamide] it was 0.10 µM.
In the case of `CCCC(C)(N)CNC(=O)c1c(C)nc2c(OCc3c(F)ccc(C4CC4)c3F)cc(C)cn12` (stereo not drawn) [Example 359, ent-N-(2-amino-2-methylpentyl)-8-[(3-cyclopropyl-2,6-difluorobenzyl)oxy]-2,6-dimethylimidazo[1,2-a]pyridine-3-carboxamide] it was 3.00 µM; in that of `CCC(C)(N)CNC(=O)c1c(C)nc2c(OCc3c(F)ccc(OC)c3F)cc(C)cn12` (stereo not drawn) [Example 360, ent-N-(2-amino-2-methylbutyl)-8-[(2,6-difluoro-3-methoxybenzyl)oxy]-2,6-dimethylimidazo[1,2-a]pyridine-3-carboxamide], 1.00 µM; in that of `COc1ccc(F)c(COc2cc(C)cn3c(C(=O)NCC(C)(N)CF)c(C)nc23)c1F` (stereo not drawn) [Example 361, ent-N-(2-amino-3-fluoro-2-methylpropyl)-8-[(2,6-difluoro-3-methoxybenzyl)oxy]-2,6-dimethylimidazo[1,2-a]pyridine-3-carboxamide], 1.00 µM.
In the case of `Cc1cc(OCc2c(F)ccc(C3CC3)c2F)c2nc(C)c(C(=O)NCC(C)(N)CF)n2c1` (stereo not drawn) [Example 362, N-(2-amino-3-fluoro-2-methylpropyl)-8-[(3-cyclopropyl-2,6-difluorobenzyl)oxy]-2,6-dimethylimidazo[1,2-a]pyridine-3-carboxamide] it was 1.00 µM; in that of `CCC(C)(N)CNC(=O)c1c(C)nc2c(OCc3c(F)ccc(C4CC4)c3F)cc(C)cn12` (stereo not drawn) [Example 363, ent-N-(2-amino-2-methylbutyl)-8-[(3-cyclopropyl-2,6-difluorobenzyl)oxy]-2,6 dimethylimidazo[1,2-a]pyridine-3-carboxamide], 3.00 µM.
In the case of `CCCC(C)(N)CNC(=O)c1c(C)nc2c(OCc3c(F)ccc(OC)c3F)cc(C)cn12` (stereo not drawn) [Example 364, ent-N-(2-amino-2-methylpentyl)-8-[(2,6-difluoro-3-methoxybenzyl)oxy]-2,6-dimethylimidao[1,2-a]pyridine-3-carboxamide], the MEC was found to be 0.30 µM.
In the case of `Cc1cc(OCc2c(F)cccc2F)c2nc(C)c(C(=O)NC34CC5CC(CC(N)(C5)C3)C4)n2c1` [Example 365, N-(3-aminoadamantan-1-yl)-8-[(2,6-difluorobenzyl)oxy]-2,6-dimethylimidazo[1,2-a]pyridine-3-carboxamide Formate] it was 1.00 µM; in that of `CCCC(C)(N)CNC(=O)c1c(C)nc2c(OCc3c(F)cccc3F)cc(CF)cn12` (stereo not drawn) [Example 403, ent-N-(2-amino-2-methylpentyl)-8-[(2,6-difluorobenzyl)oxy]-6-(fluoromethyl)-2-methylimidazo[1,2-a]pyridine-3-carboxamide], 0.10 µM; in that of `CCC(C)(N)CNC(=O)c1c(C)nc2c(OCc3c(F)cccc3F)cc(CF)cn12` (stereo not drawn) [Example 404, ent-N-(2-amino-2-methylbutyl)-8-[(2,6-difluorobenzyl)oxy]-6-(fluoromethyl)-2-methylimidazo[1,2-a]pyridine-3-carboxamide], 0.30 µM.
In the case of `Cc1nc2c(OCc3c(F)cccc3F)cc(CF)cn2c1C(=O)NCC(C)(N)CF` (stereo not drawn) [Example 405, ent-N-(2-amino-3-fluoro-2-methylpropyl)-8-[(2,6-difluorobenzyl)oxy]-6-(fluoromethyl)-2-methylimidazo[1,2-a]pyridine-3-carboxamide] it was 0.30 µM.
